Test results reported in ChEMBL document CHEMBL1130602 (Bioorg Med Chem Lett, 1998).

Key:
[1] = target: Serotonin 2 (5-HT2) receptor (Rattus norvegicus, UniProt P30994+P08909+P14842); experiment: Compound was evaluated for binding affinity against 5-hydroxytryptamine 2 receptor from rat; type: protein assay
CHO = experiment: (§1) Compound was tested for stimulation of mitogenesis in CHO.hD3 cells in a dose dependent manner; type: functional, cell-based; details: Cricetulus griseus
D(1A) dopamine receptor = D(1A) dopamine receptor (Homo sapiens, UniProt P21728); experiment: Compound was evaluated for binding affinity against Dopamine receptor D1 transfected in CHO cell membranes
D(3) dopamine receptor = D(3) dopamine receptor (Homo sapiens, UniProt P35462); experiment: Compound was evaluated for binding affinity against human Dopamine receptor D3 transfected in CHO cell membranes to stimulate [3H]thymidine uptake
D(1B) dopamine receptor = D(1B) dopamine receptor (Homo sapiens, UniProt P21918); experiment: Compound was evaluated for binding affinity against human Dopamine receptor D5 transfected in CHO cell membranes
D(4) dopamine receptor [2] = target: T1, D(4) dopamine receptor (Homo sapiens, UniProt P21917); experiment: Compound was evaluated for binding affinity against human Dopamine receptor D4 transfected in CHO cell membranes
T1 sequence (P21917 whole entry): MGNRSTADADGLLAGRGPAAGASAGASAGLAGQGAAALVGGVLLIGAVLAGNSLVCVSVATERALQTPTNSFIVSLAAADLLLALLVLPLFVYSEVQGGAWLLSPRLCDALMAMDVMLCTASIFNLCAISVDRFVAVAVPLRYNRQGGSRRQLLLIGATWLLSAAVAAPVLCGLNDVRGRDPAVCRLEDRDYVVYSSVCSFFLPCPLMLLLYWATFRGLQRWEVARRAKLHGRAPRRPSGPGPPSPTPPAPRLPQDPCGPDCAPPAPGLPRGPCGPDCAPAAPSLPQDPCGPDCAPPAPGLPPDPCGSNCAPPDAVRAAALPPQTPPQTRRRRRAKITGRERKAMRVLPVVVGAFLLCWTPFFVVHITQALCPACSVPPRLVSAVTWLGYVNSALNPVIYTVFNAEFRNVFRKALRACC

[3] = target: T2, Adrenergic receptor alpha-1 (Rattus norvegicus, UniProt P15823+P23944+P43140); experiment: Compound was evaluated for binding affinity against Alpha-1 adrenergic receptor from rat; type: protein assay
T2 sequence (P15823 whole entry): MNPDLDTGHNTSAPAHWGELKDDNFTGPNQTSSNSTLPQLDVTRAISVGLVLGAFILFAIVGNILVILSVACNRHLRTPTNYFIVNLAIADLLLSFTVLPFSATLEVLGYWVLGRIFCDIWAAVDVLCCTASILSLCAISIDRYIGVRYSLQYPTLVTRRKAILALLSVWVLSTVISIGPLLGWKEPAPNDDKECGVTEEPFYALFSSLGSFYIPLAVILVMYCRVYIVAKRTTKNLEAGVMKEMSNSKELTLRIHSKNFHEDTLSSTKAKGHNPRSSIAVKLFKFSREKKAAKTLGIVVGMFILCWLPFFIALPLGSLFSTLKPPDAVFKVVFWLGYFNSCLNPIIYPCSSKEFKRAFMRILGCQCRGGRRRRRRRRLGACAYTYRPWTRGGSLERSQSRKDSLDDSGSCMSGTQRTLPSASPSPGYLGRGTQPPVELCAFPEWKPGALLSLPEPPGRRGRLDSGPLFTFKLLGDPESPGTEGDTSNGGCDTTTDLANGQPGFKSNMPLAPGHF
T2 sequence (P23944 whole entry): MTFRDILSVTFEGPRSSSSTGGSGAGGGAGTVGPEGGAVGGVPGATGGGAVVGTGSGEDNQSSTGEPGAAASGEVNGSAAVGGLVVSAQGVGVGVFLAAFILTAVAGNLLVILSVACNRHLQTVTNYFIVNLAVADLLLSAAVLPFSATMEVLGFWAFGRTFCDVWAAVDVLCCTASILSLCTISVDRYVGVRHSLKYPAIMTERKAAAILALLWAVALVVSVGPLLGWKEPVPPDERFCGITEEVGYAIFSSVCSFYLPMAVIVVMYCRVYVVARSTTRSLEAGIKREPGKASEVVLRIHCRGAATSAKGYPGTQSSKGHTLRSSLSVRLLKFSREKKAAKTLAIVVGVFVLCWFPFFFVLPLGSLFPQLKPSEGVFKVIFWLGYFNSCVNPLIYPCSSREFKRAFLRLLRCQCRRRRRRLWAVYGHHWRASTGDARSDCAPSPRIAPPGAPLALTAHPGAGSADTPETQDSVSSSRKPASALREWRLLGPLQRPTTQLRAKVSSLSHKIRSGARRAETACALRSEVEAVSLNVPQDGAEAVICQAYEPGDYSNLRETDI
T2 sequence (P43140 whole entry): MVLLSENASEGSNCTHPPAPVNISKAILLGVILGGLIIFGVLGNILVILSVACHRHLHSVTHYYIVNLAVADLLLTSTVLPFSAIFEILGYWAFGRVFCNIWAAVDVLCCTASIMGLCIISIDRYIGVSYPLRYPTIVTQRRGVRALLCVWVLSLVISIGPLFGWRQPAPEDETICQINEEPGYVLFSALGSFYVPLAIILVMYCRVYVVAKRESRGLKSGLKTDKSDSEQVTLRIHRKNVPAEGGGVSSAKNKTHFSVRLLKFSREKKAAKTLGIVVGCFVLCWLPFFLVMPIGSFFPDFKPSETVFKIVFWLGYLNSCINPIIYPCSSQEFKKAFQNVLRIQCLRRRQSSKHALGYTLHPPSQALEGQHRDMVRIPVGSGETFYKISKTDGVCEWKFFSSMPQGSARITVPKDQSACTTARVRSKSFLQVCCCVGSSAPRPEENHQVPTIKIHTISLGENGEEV

CHO-hD3 = experiment: as §1; type: functional, cell-based; details: Cricetulus griseus
D(4) dopamine receptor [4] = target: T1, D(4) dopamine receptor; experiment: Affinity against D4 receptor was evaluated
[5] = target: D(2) dopamine receptor (Homo sapiens) (UniProt P14416); experiment: Selectivity ratio of Ki of D2 receptor to that of D3 receptor
D(2) dopamine receptor (Homo sapiens), sequence (P14416 whole entry): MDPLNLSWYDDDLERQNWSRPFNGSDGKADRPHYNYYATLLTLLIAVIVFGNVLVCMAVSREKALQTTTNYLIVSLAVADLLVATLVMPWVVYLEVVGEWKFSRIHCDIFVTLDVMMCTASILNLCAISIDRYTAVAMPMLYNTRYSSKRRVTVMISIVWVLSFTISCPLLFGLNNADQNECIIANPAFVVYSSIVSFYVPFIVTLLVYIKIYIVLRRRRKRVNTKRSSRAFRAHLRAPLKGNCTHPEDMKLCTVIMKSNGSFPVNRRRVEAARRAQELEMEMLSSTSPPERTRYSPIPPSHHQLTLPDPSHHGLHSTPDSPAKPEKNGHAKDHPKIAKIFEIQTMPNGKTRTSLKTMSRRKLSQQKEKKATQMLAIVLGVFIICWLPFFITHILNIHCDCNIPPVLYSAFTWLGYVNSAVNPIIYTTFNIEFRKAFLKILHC

D(1B) dopamine receptor, sequence (P21918 whole entry): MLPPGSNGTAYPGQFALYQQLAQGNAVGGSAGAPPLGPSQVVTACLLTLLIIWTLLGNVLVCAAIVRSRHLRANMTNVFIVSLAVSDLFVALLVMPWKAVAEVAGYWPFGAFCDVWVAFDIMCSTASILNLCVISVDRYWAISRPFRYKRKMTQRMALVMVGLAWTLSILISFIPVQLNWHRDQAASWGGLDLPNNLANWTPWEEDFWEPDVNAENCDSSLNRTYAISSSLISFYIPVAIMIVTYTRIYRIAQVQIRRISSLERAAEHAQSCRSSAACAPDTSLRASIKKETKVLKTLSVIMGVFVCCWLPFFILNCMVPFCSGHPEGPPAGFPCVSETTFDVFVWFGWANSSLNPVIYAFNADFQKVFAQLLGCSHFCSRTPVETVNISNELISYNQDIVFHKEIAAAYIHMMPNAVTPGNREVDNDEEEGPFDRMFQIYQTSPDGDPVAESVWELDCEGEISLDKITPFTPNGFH
D(1A) dopamine receptor, sequence (P21728 whole entry): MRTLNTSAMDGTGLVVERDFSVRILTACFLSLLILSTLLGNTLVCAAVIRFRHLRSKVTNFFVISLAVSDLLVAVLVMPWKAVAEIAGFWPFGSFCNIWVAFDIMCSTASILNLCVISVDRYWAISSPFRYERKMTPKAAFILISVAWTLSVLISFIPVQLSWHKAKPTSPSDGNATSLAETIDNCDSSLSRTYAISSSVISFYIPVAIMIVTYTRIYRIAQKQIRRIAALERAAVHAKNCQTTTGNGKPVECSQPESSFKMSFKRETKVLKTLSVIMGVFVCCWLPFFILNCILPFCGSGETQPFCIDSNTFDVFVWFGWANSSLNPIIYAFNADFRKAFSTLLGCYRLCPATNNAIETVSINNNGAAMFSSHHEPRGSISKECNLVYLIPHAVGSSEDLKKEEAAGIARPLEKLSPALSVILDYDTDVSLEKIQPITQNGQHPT
D(3) dopamine receptor, sequence (P35462 whole entry): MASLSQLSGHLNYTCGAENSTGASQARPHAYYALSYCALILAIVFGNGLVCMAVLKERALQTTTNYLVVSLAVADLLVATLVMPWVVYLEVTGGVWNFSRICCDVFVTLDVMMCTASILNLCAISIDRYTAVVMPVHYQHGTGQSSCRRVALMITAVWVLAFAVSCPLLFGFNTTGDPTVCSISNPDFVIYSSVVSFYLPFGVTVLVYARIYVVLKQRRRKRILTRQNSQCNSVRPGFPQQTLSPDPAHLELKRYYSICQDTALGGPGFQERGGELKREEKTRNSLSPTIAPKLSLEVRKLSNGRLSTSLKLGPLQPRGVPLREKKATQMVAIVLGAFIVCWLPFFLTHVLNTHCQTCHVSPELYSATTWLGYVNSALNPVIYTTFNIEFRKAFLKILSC

Compound	Ki [1] [nM]	Ki (D(1A) dopamine receptor) [nM]	Ki (D(1B) dopamine receptor) [nM]	Ki (D(4) dopamine receptor [2]) [nM]	Ki [3] [nM]	IC50 (CHO-hD3) [nM]	other results
O=C(NCCCCN1CCN(c2cccc(Cl)c2Cl)CC1)c1ccc2c(c1)-c1ccccc1-2	125	> 10000	> 10000	> 5000	547	–	IC50 (CHO): 6.8 nM; Ki (D(3) dopamine receptor): 0.9 nM
O=C(CCCN1CCC(O)(c2ccc(Cl)cc2)CC1)c1ccc(F)cc1 [HALOPERIDOL]	–	–	–	–	–	8.8	–
COc1c(C(=O)NCCN2CCN(c3cccc(Cl)c3Cl)CC2)cc(Br)c2ccccc12	–	–	–	–	–	–	Ki (D(4) dopamine receptor [4]): 65 nM
CCCCN1CCCC1CNC(=O)c1cc(C#N)c2ccccc2c1OC (stereo unspecified)	–	–	–	–	–	–	Ratio [5]: 10
O=C(NCCCCN1CCN(c2cccc(Cl)c2Cl)CC1)c1ccc2c(c1)Cc1ccccc1-2	223	> 10000	> 10000	> 5000	642	5	–
